This note sets out measurements from patent publication US9670210B2, “Cyclopropylamines as LSD1 inhibitors” (Incyte Corporation, priority 2014, dated 2017).

Molecules are shown by their SMILES.

This test has as its target LSD-1 enzyme (Homo sapiens (Human), UniProt O60341).
Experimental: LSD1 Histone Demethylase Biochemical Assay
LANCE LSD1/KDM1A demethylase assay-10 μL of 1 nM LSD-1 enzyme (ENZO BML-SE544-0050) in the assay buffer (50 mM Tris, pH 7.5, 0.01% Tween-20, 25 mM NaCl, 5 mM DTT) were preincubated for 1 hour at 25° C. with 0.8 μL compound/DMSO dotted in black 384 well polystyrene plates. […] After stopping the reactions plates were incubated for 30 minutes and read on a PHERAstar FS plate reader (BMG Labtech).
With `O=C(Nc1ccc(F)cc1)N1CC(CN[C@@H]2C[C@H]2c2ccccc2)C1` (relative stereo) [Example 21, N-(4-Fluorophenyl)-3-{[(trans-2-phenylcyclopropyl)amino]methyl}azetidine-1-carboxamide], the IC50 is under 100 nM.

For `COc1ccc(NC(=O)N2CC(CN[C@@H]3C[C@H]3c3ccccc3)C2)cc1` (relative stereo) [Example 22, N-(4-Methoxyphenyl)-3-{[(trans-2-phenylcyclopropyl)amino]methyl}azetidine-1-carboxamide], the IC50 is under 100 nM. `COc1cccc(NC(=O)N2CC(CN[C@@H]3C[C@H]3c3ccccc3)C2)c1` (relative stereo) [Example 23, N-(3-Methoxyphenyl)-3-{[(trans-2-phenylcyclopropyl)amino]methyl}azetidine-1-carboxamide] came in with an IC50 of under 100 nM. As for `COc1ccccc1NC(=O)N1CC(CN[C@@H]2C[C@H]2c2ccccc2)C1` (relative stereo) [Example 24, N-(2-Methoxyphenyl)-3-{[(trans-2-phenylcyclopropyl)amino]methyl}azetidine-1-carboxamide], the figure is under 100 nM.

The molecule `N#Cc1ccc(C(=O)N2CC(CN[C@@H]3C[C@H]3c3ccccc3)C2)cc1` (relative stereo) [Example 25, 4-[(3-{[(trans-2-Phenylcyclopropyl)amino]methyl}azetidin-1-yl)carbonyl]benzonitrile] came in with an IC50 of under 100 nM. `N#Cc1cccc(C(=O)N2CC(CN[C@@H]3C[C@H]3c3ccccc3)C2)c1` (relative stereo) [Example 26, 3-[(3-{[(trans-2-Phenylcyclopropyl)amino]methyl}azetidin-1-yl)carbonyl]benzonitrile] registered an IC50 of under 100 nM. In the case of `COc1cccc(C(=O)N2CC(CN[C@@H]3C[C@H]3c3ccccc3)C2)c1` (relative stereo) [Example 27, N-{[1-(3-Methoxybenzoyl)azetidin-3-yl]methyl}-trans-2-phenylcyclopropanamine] it was under 100 nM; in that of `O=C(c1ccc(F)cc1)N1CC(CN[C@@H]2C[C@H]2c2ccccc2)C1` (relative stereo) [Example 28, N-{[1-(4-Fluorobenzoyl)azetidin-3-yl]methyl}-trans-2-phenylcyclopropanamine], under 100 nM; in that of `O=C(c1cccc(F)c1)N1CC(CN[C@@H]2C[C@H]2c2ccccc2)C1` (relative stereo) [Example 29, N-{[1-(3-Fluorobenzoyl)azetidin-3-yl]methyl}-trans-2-phenylcyclopropanamine], under 100 nM. In turn, `O=S(=O)(c1ccc(OC(F)(F)F)cc1)N1CC(CN[C@@H]2C[C@H]2c2ccccc2)C1` (relative stereo) [Example 30, Trans-2-phenyl-N-[(1-{[4-(trifluoromethoxy)phenyl]sulfonyl}azetidin-3-yl)methyl]cyclopropanamine] registered a concentration for half-maximal inhibition (IC50) of under 100 nM. `O=C(N1CC(CNC2CC2c2ccccc2)C1)N1CCC[C@@]2(CCN(C3CCC(O)CC3)C2=O)C1` (stereo in doubt) [Example 10, (5R)-2-(cis-4-Hydroxycyclohexyl)-7-[(3-{[(trans-2-phenylcyclopropyl)amino]methyl}azetidin-1-yl)carbonyl]-2,7-diazaspiro[4.5]decan-1-one] showed an IC50 of under 100 nM. For `O=C(N1CC(CNC2CC2c2ccccc2)C1)N1CCC[C@]2(CCN(C3CCC(O)CC3)C2=O)C1` (stereo partly drawn) [Example 11, (5S)-2-(cis-4-Hydroxycyclohexyl)-7-[(3-{[(trans-2-phenylcyclopropyl)amino]methyl}azetidin-1-yl)carbonyl]-2,7-diazaspiro[4.5]decan-1-one], the IC50 was under 100 nM. Molecule `O=C(N1CC(CNC2CC2c2ccccc2)C1)N1CCCC(Oc2ccccc2)C1` (stereo not drawn) [Example 14, N-({1-[(3-Phenoxypiperidin-1-yl)carbonyl]azetidin-3-yl}methyl)-trans-2-phenylcyclopropanamine] showed an IC50 of under 100 nM. In turn, `COC1CCCN(C(=O)N2CC(CNC3CC3c3ccccc3)C2)C1` (stereo not drawn) [Example 15, N-({1-[(3-Methoxypiperidin-1-yl)carbonyl]azetidin-3-yl}methyl)-trans-2-phenylcyclopropanamine] returned an IC50 of under 100 nM. On to `O=C(O)C1(CN2CCC(CN[C@@H]3C[C@H]3c3ccccc3)(Cc3ccc(F)cc3)CC2)CC1` [Example 31, 1-{[4-(4-fluorobenzyl)-4-({[(1R,2S)-2-phenylcyclopropyl]amino}methyl)piperidin-1-yl]methyl}cyclopropanecarboxylic acid], for which the IC50 is under 100 nM. Regarding `O=C(O)C1(CN2CCC(CN[C@@H]3C[C@H]3c3ccccc3)(Cc3ccc(F)cc3)CC2)CCC1` [Example 32, 1-{[4-(4-fluorobenzyl)-4-({[(1R,2S)-2-phenylcyclopropyl]amino}methyl)piperidin-1-yl]methyl}cyclobutanecarboxylic acid], the IC50 is under 100 nM.

As to `N[C@H]1CC[C@H](C(=O)N2CCC(CN[C@@H]3C[C@H]3c3ccccc3)(Cc3ccc(F)cc3)CC2)CC1` [Example 33, trans-4-{[4-(4-fluorobenzyl)-4-({[(1R,2S)-2-phenylcyclopropyl]amino}methyl)piperidin-1-yl]carbonyl}cyclohexanamine], the IC50 was under 100 nM.

Regarding `NC1(C(=O)N2CCC(CN[C@@H]3C[C@H]3c3ccccc3)(Cc3ccc(F)cc3)CC2)CCC1` [Example 34, 1-{[4-(4-fluorobenzyl)-4-({[(1R,2S)-2-phenylcyclopropyl]amino}methyl)piperidin-1-yl]carbonyl}cyclobutanamine], the IC50 is under 100 nM. As for `COCC1(CN[C@@H]2C[C@H]2c2ccccc2)CCN(CC2(C(=O)O)CC2)CC1` [Example 35, 1-{[4-(methoxymethyl)-4-({[(1R,2S)-2-phenylcyclopropyl]amino}methyl)piperidin-1-yl]methyl}cyclopropanecarboxylic acid], the figure is under 100 nM; as for `COCC1(CN[C@@H]2C[C@H]2c2ccccc2)CCN(CC2(C(=O)O)CCCC2)CC1` [Example 37, 1-{[4-(methoxymethyl)-4-({[(1R,2S)-2-phenylcyclopropyl]amino}methyl)piperidin-1-yl]methyl}cyclopentanecarboxylic acid], under 100 nM. As for `COCC1(CN[C@@H]2C[C@H]2c2ccccc2)CCN(C(=O)[C@@H]2CCCN2C)CC1` [Example 38, (1R,2S)—N-[(4-(methoxymethyl)-1-{[(2S)-1-methylpyrrolidin-2-yl]carbonyl}piperidin-4-yl)methyl]-2-phenylcyclopropanamine], the figure is under 100 nM. As for `COCC1(CN[C@@H]2C[C@H]2c2ccccc2)CCN(C(=O)c2cn(C)cn2)CC1` [Example 39, (1R,2S)—N-({4-(methoxymethyl)-1-[(1-methyl-1H-imidazol-4-yl)carbonyl]piperidin-4-yl}methyl)-2-phenylcyclopropanamine], the figure is under 100 nM; as for `COCC1(CN[C@@H]2C[C@H]2c2ccccc2)CCN(C(=O)c2ccc(N)nn2)CC1` [Example 40, 6-{[4-(methoxymethyl)-4-({[(1R,2S)-2-phenylcyclopropyl]amino}methyl)piperidin-1-yl]carbonyl}pyridazin-3-amine], under 100 nM. `COCC1(CN[C@@H]2C[C@H]2c2ccccc2)CCN(C(=O)C2CCN(C)CC2)CC1` [Example 41, (1R,2S)—N-({4-(methoxymethyl)-1-[(1-methylpiperidin-4-yl)carbonyl]piperidin-4-yl}methyl)-2-phenylcyclopropanamine]: the half-inhibitory concentration (IC50) is under 100 nM. In the case of `COCC1(CN[C@@H]2C[C@H]2c2ccccc2)CCN(C(=O)c2ccn(C)n2)CC1` [Example 42, (1R,2S)—N-({4-(methoxymethyl)-1-[(1-methyl-1H-pyrazol-3-yl)carbonyl]piperidin-4-yl}methyl)-2-phenylcyclopropanamine] it was under 100 nM; in that of `COCC1(CN[C@@H]2C[C@H]2c2ccccc2)CCN(C(=O)N2CCN(C)CC2)CC1` [Example 43, (1R,2S)—N-({4-(methoxymethyl)-1-[(4-methylpiperazin-1-yl)carbonyl]piperidin-4-yl}methyl)-2-phenylcyclopropanamine], under 100 nM. In the case of `CC1(CN[C@@H]2C[C@H]2c2ccccc2)CCN(CC2(C(=O)O)CC2)CC1` [Example 44, 1-{[4-methyl-4-({[(1R,2S)-2-phenylcyclopropyl]amino}methyl)piperidin-1-yl]methyl}cyclopropanecarboxylic acid] it was under 100 nM; in that of `CC1(CN[C@@H]2C[C@H]2c2ccccc2)CCN(CC2(C(=O)O)CCC2)CC1` [Example 45, 1-{[4-methyl-4-({[(1R,2S)-2-phenylcyclopropyl]amino}methyl)piperidin-1-yl]methyl}cyclobutanecarboxylic acid], under 100 nM. For the molecule `Cn1ccc(C(=O)N2CCC(C)(CN[C@@H]3C[C@H]3c3ccccc3)CC2)n1` [Example 46, (1R,2S)—N-({4-methyl-1-[(1-methyl-1H-pyrazol-3-yl)carbonyl]piperidin-4-yl}methyl)-2-phenylcyclopropanamine], the IC50 is under 100 nM. `Cn1cnc(C(=O)N2CCC(C)(CN[C@@H]3C[C@H]3c3ccccc3)CC2)c1` [Example 47, (1R,2S)—N-({4-methyl-1-[(1-methyl-1H-imidazol-4-yl)carbonyl]piperidin-4-yl}methyl)-2-phenylcyclopropanamine]: the IC50 was under 100 nM. In the case of `CC1(CN[C@@H]2C[C@H]2c2ccccc2)CCN(C(=O)c2cnc(N)nc2)CC1` [Example 48, 5-{[4-methyl-4-({[(1R,2S)-2-phenylcyclopropyl]amino}methyl)piperidin-1-yl]carbonyl}pyrimidin-2-amine] it was under 100 nM; in that of `CC1(CN[C@@H]2C[C@H]2c2ccccc2)CCN(C(=O)c2ccc(N)nn2)CC1` [Example 49, 6-{[4-methyl-4-({[(1R,2S)-2-phenylcyclopropyl]amino}methyl)piperidin-1-yl]carbonyl}pyridazin-3-amine], under 100 nM; in that of `CC1(CN[C@@H]2C[C@H]2c2ccccc2)CCN(C(=O)c2c[nH]nc2N)CC1` [Example 50, 4-{[4-methyl-4-({[(1R,2S)-2-phenylcyclopropyl]amino}methyl)piperidin-1-yl]carbonyl}-1H-pyrazol-3-amine], under 100 nM.

As usually defined, the IC50 is the concentration that gives 50% inhibition. Higher therefore signals weaker potency in that assay.
